# Entries after “also recorded” stand apart in the source; their conditions may differ.
# Columns and labels:
# [1] = test system: GABAA receptor β3 subunit S408/9 phosphorylation; assay: Immunoblot of β3 S408/9 phosphorylation in hippocampal slices; type: cell-based, mice; settings: 100 nM
# Procedure: Hippocampi were dissected out of acute slices from 8 to 12 week old C57/B16 mice and lysed with phosphate buffer including: 20 mM Tris-HCl, 150 mM NaCl, 5 mM EDTA, 10 mM NaF, 2 mM Na3VO4, 10 mM pyrophosphate, 0.1% SDS and 1% Triton after drug treatment. The β3 subunit was isolated using immunoprecipitation with β3 antibodies, after correction for protein content and the specific activity of labeling. Results were attained by SDS/PAGE followed by autoradiography (Abramian et al., 2010). For biotinylation experiments hippocampi were dissected out of acute slices from 8 to 12 week old C57/B16 mice and incubated in artificial cerebrospinal fluid (ACSF) described above at 30° C. for 1 h for recovery before experimentation. Slices were then placed on ice and incubated for 30 min with 1 mg/mL NHS-SS-biotin (Pierce). Excess biotin was removed by a 50 mM glycine quenching buffer, followed by washing of slices three times in ice-cold ACSF. The tissue was snap frozen on dry ice for 5 min, thawed at 4° C. and lysed. The lysates were solubilized with 2% Triton at 4° C. on a rotating wheel for 1 h. The insoluble material was removed by centrifugation, and 350-500 μg of protein lysate were incubated with NeutrAvidin beads (Pierce) for 18-24 h at 4° C. Bound material was eluted with sample buffer and subjected to SDS/PAGE and then immunoblotted with the indicated antibodies. Blots were then quantified using the CCD-based ChemiDoc XRS ? system. Antibodies against the β3 subunit and the phospho-β3 antibody were generated and verified by the laboratory of S.J.M. (Vien et al., 2015).
# To produce antibodies specific for phosphorylated S443, rabbits were injected with a synthetic peptide corresponding to residues […] of the murine α4 subunit in which the serine residue corresponding to S443 was chemically phosphorylated; […]. Hippocampal slices were treated with vehicle (Con), or SGE-516 for 20 min. Slices were immunoblotted with pS408/9, β3, or actin antibodies. The ratio of pS408/9/β3 immunoreactivity was then normalized to control slices (100%=the line).
# Hippocampal slices were treated with 100 nM ALLO or P4 (progesterone), and S408/9 phosphorylation was then determined as detailed above, n=4 slices (FIG. 18D). Hippocampal slices were treated with 100 nM ORG (FIG. 18E). S408/9 phosphorylation was examined using immunoblotting.
# [2] = target: T1, GABAARs composed of α4β3 subunits (Homo sapiens, UniProt P28472+P48169); assay: Acute modulation of GABA-induced currents in HEK-293 cells; type: cell-based; design: dose or concentration left out as unconfirmed; settings: rapidly applied with GABA
# T1 construct: expressed in transfected cells; host or cells: HEK-293
# T1 sequence (P48169 36-554): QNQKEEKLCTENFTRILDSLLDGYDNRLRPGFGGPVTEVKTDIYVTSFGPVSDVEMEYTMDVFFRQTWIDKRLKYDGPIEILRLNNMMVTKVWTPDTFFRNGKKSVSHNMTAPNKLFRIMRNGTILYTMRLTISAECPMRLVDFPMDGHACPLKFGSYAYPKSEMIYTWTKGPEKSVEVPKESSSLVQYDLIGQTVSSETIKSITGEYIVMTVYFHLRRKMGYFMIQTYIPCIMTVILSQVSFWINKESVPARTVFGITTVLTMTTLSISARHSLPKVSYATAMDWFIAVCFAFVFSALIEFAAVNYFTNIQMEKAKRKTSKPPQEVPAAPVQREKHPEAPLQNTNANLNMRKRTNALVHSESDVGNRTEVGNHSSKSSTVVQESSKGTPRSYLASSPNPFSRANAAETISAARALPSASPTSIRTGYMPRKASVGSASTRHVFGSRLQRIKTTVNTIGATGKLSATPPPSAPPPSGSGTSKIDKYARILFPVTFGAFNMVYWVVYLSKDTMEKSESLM
# T1 sequence (P28472 26-473): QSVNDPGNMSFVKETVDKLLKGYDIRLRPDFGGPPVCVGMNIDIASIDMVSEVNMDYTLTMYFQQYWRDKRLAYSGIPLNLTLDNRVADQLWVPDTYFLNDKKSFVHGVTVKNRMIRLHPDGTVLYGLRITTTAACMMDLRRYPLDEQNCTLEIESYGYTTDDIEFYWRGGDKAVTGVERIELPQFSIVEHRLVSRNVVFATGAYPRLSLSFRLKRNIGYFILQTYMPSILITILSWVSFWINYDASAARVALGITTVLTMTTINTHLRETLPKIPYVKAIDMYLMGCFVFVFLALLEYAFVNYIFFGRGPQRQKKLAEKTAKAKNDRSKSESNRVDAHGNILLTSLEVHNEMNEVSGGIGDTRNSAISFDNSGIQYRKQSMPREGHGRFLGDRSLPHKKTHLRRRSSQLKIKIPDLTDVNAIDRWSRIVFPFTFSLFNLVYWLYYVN
# [3] = test system: GABA-evoked currents in GT1-7 cells; assay: Patch-clamp of GABA-induced currents in GT1-7 cells, compound in the pipette electrolyte; type: cell-based; settings: 100 nM in electrolyte, GABA EC20, 20 min time course
# Procedure: Patch-clamp recordings were made from GT1-7 cells. The magnitude of the GABA-induced currents (IGABA) at EC20 agonists concentration were then measured, in the presence of control electrolyte or that supplemented with 100 nM ALLO, or 100 nM ORG OD 02-0 over a time course of 20 min.
# [4] = test system: tonic current in dentate gyms granule cells (DGGCs); assay: Sustained (metabotropic) enhancement of tonic current in DGGCs after 15 min exposure and washout; type: cell-based, mice; settings: protocol as in FIG. 3; n=6-8 cells
# Procedure: Brain slices were prepared from 3- to 5-week-old male C57 mice. Mice were anesthetized with isoflurane, decapitated, and brains were rapidly removed and submerged in ice-cold cutting solution containing (mM): 126 NaCl, 2.5 KCl, 0.5 CaCl2, 2 MgCl2, 26 NaHCO3, 1.25 NaH2PO4, 10 glucose, 1.5 sodium pyruvate, and 3 kynurenic acid. Coronal 310 μm thick slices were cut with the vibratome VT1000S (Leica Microsystems, St Louis, Mo., USA). The slices were then transferred into incubation chamber filled with prewarmed (31-32° C.) oxygenated artificial cerebro-spinal fluid (ACSF) of the following composition (in mM): 126 NaCl, 2.5 KCl, 2 CaCl2, 2 MgCl2, 26 NaHCO3, 1.25 NaH2PO4, 10 glucose, 1.5 sodium pyruvate, 1 glutamine, 3 kynurenic acid and 0.005 GABA bubbled with 95% O2-5% CO2. Slices were allowed to recover at 32° C. for at least 1 hr before recording. Exogenous GABA was added in an attempt to standardize ambient GABA in the slice and provide an agonist source for newly inserted extrasynaptic GABAARs.
# After recovery, a single slice was transferred to a submerged, dual perfusion recording chamber (Warner Instruments, Hamden, Conn., USA) on the stage of an upright microscope (Nikon FN-1) with a 40× water immersion objective equipped with DIC/IR optics. Slices were maintained at 32° C. and gravity-superfused with ACSF solution throughout experimentation and perfused at rate of 2 ml/min with oxygenated (O2/CO2 95/5%) ACSF.
# Whole-cell currents were recorded from the dentate gyms granule cells (DGGCs) in 310-μm-thick coronal hippocampal slices. Patch pipettes (5-7MΩ) were pulled from borosilicate glass (World Precision Instruments) and filled with intracellular solution of the composition (in mM) as follows: 140 CsCl, 1 MgCl2, 0.1 EGTA, 10 HEPES, 2 Mg-ATP, 4 NaCl and 0.3 Na-GTP (pH=7.2 with CsOH). A 5 min period for stabilization after obtaining the whole-cell recording conformation (holding potential of −60 mV) was allowed before currents were recorded using an Axopatch 200B amplifier (Molecular Devices), low-pass filtered at 2 kHz, digitized at 20 kHz (Digidata 1440A; Molecular Devices), and stored for offline analysis.
# For tonic current measurements, an all-points histogram was plotted for a 10 s period before and during 100 μM picrotoxin application, once the response reached a plateau level. Recordings with unstable baselines were discarded. Fitting the histogram with a Gaussian distribution gave the mean baseline current amplitude and the difference between the amplitudes before and during picrotoxin was considered to be the tonic current. The negative section of the all-points histogram which corresponds to the inward IPSCs was not fitted with a Gaussian distribution (Kretschmannova et al., 2013; Nusser and Mody, 2002). Series resistance and whole-cell capacitance were continually monitored and compensated throughout the course of the experiment. Recordings were eliminated from data analysis if series resistance increased by >20%. Spontaneous inhibitory post-synaptic currents (sIPSCs) were analyzed using the mini-analysis software (version 5.6.4; Synaptosoft, Decatur, Ga.). Minimum threshold detection was set to 3 times the value of baseline noise signal. To assess sIPSC kinetics, the recording trace was visually inspected and only events with a stable baseline, sharp rising phase, and single peak were used to negate artifacts due to event summation. Only recordings with a minimum of 200 events fitting these criteria were analyzed. sIPSCs amplitude, and frequency from each experimental condition was pooled and expressed as mean±SEM. To measure sIPSC decay, 100 consecutive events were averaged and the decay was fitted to a double exponential and the weighted decay constant (tw) was determined. Statistical analysis was performed by using Student t-test (paired and unpaired where appropriate), where p<0.05 is considered significant.
structure (smiles),measurement,setting,value
C=C[C@]12CCC(=O)C=C1CC[C@H]1[C@@H]3CC[C@H](C(C)=O)[C@@]3(C)CC[C@@H]12 [ORG OD 02-0],S408/9 phosphorylation in hippocampal slices,[1],regulated
same,acute modulation of GABA-evoked current (IGABA),[2],did not acutely modulate; also recorded: does not acutely modulate
same,GABA-evoked currents (IGABA) over time,[3],sustained increases
same,amplitude and density of GABAergic tonic current at varying doses,[4],dosage-dependent effect; also recorded: dosage dependent effect
